In brackets after ≈: the same amount, converted by molar mass.
Columns and labels:
[1] = tested on: Staphylococcus aureus; assay: Antibacterial activity against Staphylococcus aureus Newman measured after 16 hrs; type: functional
[2] = tested on: Escherichia coli; assay: Antibacterial activity against Escherichia coli AB1157 measured after 16 hrs; type: functional; settings: AB1157, 16 h
[3] = tested on: Staphylococcus aureus; assay: Antibacterial activity against aminoglycosides/tetracycline-resistant Staphylococcus aureus NRS-1 measured after 16 hrs; type: functional; settings: NRS-1, 16 h
[4] = tested on: Staphylococcus aureus; assay: Antibacterial activity against erythromycin-resistant Staphylococcus aureus NRS-70 measured after 16 hrs; type: functional; settings: NRS-70, 16 h
[5] = tested on: Staphylococcus aureus; assay: Antibacterial activity against oxacillin/tetracycline-resistant Staphylococcus aureus NRS-100 measured after 16 hrs; type: functional; settings: NRS-100, 16 h
[6] = tested on: Staphylococcus aureus; assay: Antibacterial activity against gentamicin-resistant Staphylococcus aureus NRS-108 measured after 16 hrs; type: functional; settings: NRS-108, 16 h
[7] = tested on: Staphylococcus aureus; assay: Antibacterial activity against linezolid-resistant Staphylococcus aureus NRS-271 measured after 16 hrs; type: functional; settings: NRS-271, 16 h
[8] = Cmax in Sprague-Dawley rat at 10 mg/kg, po administered as single dose via gavage; type: ADME, organism-based; parameters: dose 10 mg/kg, route oral; settings: in vivo
[9] = Tmax in Sprague-Dawley rat at 10 mg/kg, po administered as single dose via gavage; type: ADME, organism-based; settings: in vivo
[10] = Half life in Sprague-Dawley rat at 10 mg/kg, po administered as single dose via gavage; type: ADME, organism-based; settings: in vivo
[11] = AUC (0 to t) in Sprague-Dawley rat at 10 mg/kg, po administered as single dose via gavage; type: ADME, organism-based; settings: in vivo
[12] = AUC (0 to infinity) in Sprague-Dawley rat at 10 mg/kg, po administered as single dose via gavage; type: ADME, organism-based; parameters: dose 10 mg/kg, route oral, time infinity; settings: in vivo
[13] = Apparent volume of distribution in Sprague-Dawley rat at 10 mg/kg, po administered as single dose via gavage; type: ADME, organism-based; settings: in vivo
[14] = Clearance in Sprague-Dawley rat at 10 mg/kg, po administered as single dose via gavage; type: ADME, organism-based; settings: in vivo
[15] = Mean residence time in Sprague-Dawley rat at 10 mg/kg, po administered as single dose via gavage; type: ADME, organism-based; settings: in vivo

Structure (SMILES) | MIC [1] | MIC [2] | MIC [3] | MIC [4] | MIC [5] | MIC [6] | MIC [7] | further results
CC(C)CNc1nccc(NCCCNC2CCCc3c2[nH]c2ccccc32)n1 (stereo not drawn) | 12.5 to 25 µg/mL (≈ 31.8 to 63.7 µM) | 12.5 to 25 µg/mL (≈ 31.8 to 63.7 µM) | – | – | – | – | – | –
Cc1ccc2[nH]c3c(c2c1)CCCC3NCc1ccccc1 (stereo not drawn) | 14.5 to 20.9 µg/mL (≈ 49.9 to 72 µM) | – | – | – | – | – | – | –
CN[C@H](CC(C)C)C(=O)N[C@H]1C(=O)N[C@@H](CC(N)=O)C(=O)N[C@H]2C(=O)N[C@H]3C(=O)N[C@H](C(=O)N[C@H](C(=O)O)c4cc(O)cc(O)c4-c4cc3ccc4O)[C@H](O)c3ccc(c(Cl)c3)Oc3cc2cc(c3O[C@@H]2O[C@H](CO)[C@@H](O)[C@H](O)[C@H]2O[C@H]2C[C@](C)(N)[C@H](O)[C@H](C)O2)Oc2ccc(cc2Cl)[C@H]1O [VANCOMYCIN] | – | 6.25 to 12.5 µg/mL (≈ 4.31 to 8.63 µM) | – | – | – | – | – | –
CC(C)CNc1nccc(NCCCNC2CCCc3c2[nH]c2ccc(F)cc32)n1 (stereo not drawn) | 12.5 to 25 µg/mL (≈ 30.4 to 60.9 µM) | 12.5 to 25 µg/mL (≈ 30.4 to 60.9 µM) | – | – | – | – | – | –
COc1cccc2c3c([nH]c12)C(NCCCNc1ccnc(NCC(C)C)n1)CCC3 (stereo not drawn) | 12.5 to 25 µg/mL (≈ 29.6 to 59.2 µM) | 12.5 to 25 µg/mL (≈ 29.6 to 59.2 µM) | – | – | – | – | – | –
CC(C)CNc1nccc(NCCCNC2CCCc3c2[nH]c2ccc(Br)cc32)n1 (stereo not drawn) | 0.39 to 0.78 µg/mL (≈ 0.827 to 1.65 µM) | 0.39 to 0.78 µg/mL (≈ 0.827 to 1.65 µM) | 0.39 to 0.78 µg/mL (≈ 0.827 to 1.65 µM) | 0.78 to 1.56 µg/mL (≈ 1.65 to 3.31 µM) | 0.78 to 1.56 µg/mL (≈ 1.65 to 3.31 µM) | 0.78 to 1.56 µg/mL (≈ 1.65 to 3.31 µM) | 0.78 to 1.56 µg/mL (≈ 1.65 to 3.31 µM) | Cmax [8]: 86.3 ng/mL; Tmax [9]: 3.6 h; half-life [10]: 648 min; AUC(0-t) [11]: 1200 ng·h/mL; AUC(0-inf) [12]: 1560 ng·h/mL; Vd/F [13]: 103 L/kg; CL/F [14]: 110 mL/min/kg; MRT [15]: 16.2 h
CC(C)CNc1nccc(NCCCNC2CCCc3c2[nH]c2ccc(Cl)cc32)n1 (stereo not drawn) | 1.56 to 3.13 µg/mL (≈ 3.65 to 7.33 µM) | 1.56 to 3.13 µg/mL (≈ 3.65 to 7.33 µM) | 1.56 to 3.13 µg/mL (≈ 3.65 to 7.33 µM) | 3.13 to 6.25 µg/mL (≈ 7.33 to 14.6 µM) | 3.13 to 6.25 µg/mL (≈ 7.33 to 14.6 µM) | 1.56 to 3.13 µg/mL (≈ 3.65 to 7.33 µM) | 1.56 to 3.13 µg/mL (≈ 3.65 to 7.33 µM) | –
CC(C)CNc1nccc(NCCCNC2CCCc3c2[nH]c2ccc(C(F)(F)F)cc32)n1 (stereo not drawn) | 1.56 to 3.13 µg/mL (≈ 3.39 to 6.8 µM) | 1.56 to 3.13 µg/mL (≈ 3.39 to 6.8 µM) | 1.56 to 3.13 µg/mL (≈ 3.39 to 6.8 µM) | 1.56 to 3.13 µg/mL (≈ 3.39 to 6.8 µM) | 1.56 to 3.13 µg/mL (≈ 3.39 to 6.8 µM) | 1.56 to 3.13 µg/mL (≈ 3.39 to 6.8 µM) | 1.56 to 3.13 µg/mL (≈ 3.39 to 6.8 µM) | –
Cc1ccc2[nH]c3c(c2c1)CCCC3NCCCCc1ccccc1 (stereo not drawn) | 5 to 6.6 µg/mL (≈ 15 to 19.9 µM) | – | 2.9 to 4.2 µg/mL (≈ 8.72 to 12.6 µM) | 2.9 to 4.2 µg/mL (≈ 8.72 to 12.6 µM) | 2.9 to 4.2 µg/mL (≈ 8.72 to 12.6 µM) | 4.2 to 5.8 µg/mL (≈ 12.6 to 17.4 µM) | 4.2 to 5.8 µg/mL (≈ 12.6 to 17.4 µM) | –
CC(C)CNc1nccc(NCCCNC2CCCc3c2[nH]c2c(Br)cccc32)n1 (stereo not drawn) | 3.13 to 6.25 µg/mL (≈ 6.64 to 13.3 µM) | 6.25 to 12.5 µg/mL (≈ 13.3 to 26.5 µM) | 3.13 to 6.25 µg/mL (≈ 6.64 to 13.3 µM) | 6.25 to 12.5 µg/mL (≈ 13.3 to 26.5 µM) | 6.25 to 12.5 µg/mL (≈ 13.3 to 26.5 µM) | 6.25 to 12.5 µg/mL (≈ 13.3 to 26.5 µM) | 6.25 to 12.5 µg/mL (≈ 13.3 to 26.5 µM) | –
CC(C)CNc1nccc(NCCCCNC2CCCc3c2[nH]c2ccc(OC(F)(F)F)cc32)n1 (stereo not drawn) | 1.56 to 3.13 µg/mL (≈ 3.18 to 6.38 µM) | 3.13 to 6.25 µg/mL (≈ 6.38 to 12.7 µM) | – | – | – | – | – | –
CC(C)CNc1nccc(NCCNC2CCCc3c2[nH]c2ccc(Br)cc32)n1 (stereo not drawn) | 1.56 to 3.13 µg/mL (≈ 3.41 to 6.84 µM) | 1.56 to 3.13 µg/mL (≈ 3.41 to 6.84 µM) | – | – | – | – | – | –
CC(C)CNc1nccc(NCCCCNC2CCCc3c2[nH]c2ccc(Br)cc32)n1 (stereo not drawn) | 0.78 to 1.56 µg/mL (≈ 1.61 to 3.21 µM) | 1.56 to 3.13 µg/mL (≈ 3.21 to 6.45 µM) | – | – | – | – | – | –
COC(=O)c1ccc2[nH]c3c(c2c1)CCCC3NCCCNc1ccnc(NCC(C)C)n1 (stereo not drawn) | 25 to 50 µg/mL (≈ 55.5 to 111 µM) | > 50 µg/mL | – | – | – | – | – | –
COc1ccc2[nH]c3c(c2c1)CCCC3NCCCNc1ccnc(NCC(C)C)n1 (stereo not drawn) | 25 to 50 µg/mL (≈ 59.2 to 118 µM) | > 50 µg/mL | – | – | – | – | – | –
Cc1ccc2[nH]c3c(c2c1)CCCC3NCCc1ccccc1 (stereo not drawn) | 15 to 30.2 µg/mL (≈ 49.3 to 99.2 µM) | – | – | – | – | – | – | –
CC(C)CNc1nccc(NC2CCCc3c2[nH]c2ccc(OC(F)(F)F)cc32)n1 (stereo not drawn) | 0.78 to 1.56 µg/mL (≈ 1.86 to 3.72 µM) | – | – | – | – | – | – | –
CC(C)CNc1nccc(NCCCNC2CCCc3c2[nH]c2ccc(OC(F)(F)F)cc32)n1 (stereo not drawn) | 1.56 to 3.13 µg/mL (≈ 3.27 to 6.57 µM) | 1.56 to 3.13 µg/mL (≈ 3.27 to 6.57 µM) | 1.56 to 3.13 µg/mL (≈ 3.27 to 6.57 µM) | 1.56 to 3.13 µg/mL (≈ 3.27 to 6.57 µM) | 1.56 to 3.13 µg/mL (≈ 3.27 to 6.57 µM) | 1.56 to 3.13 µg/mL (≈ 3.27 to 6.57 µM) | 1.56 to 3.13 µg/mL (≈ 3.27 to 6.57 µM) | –
CC(C)CNc1nccc(NCCNC2CCCc3c2[nH]c2ccc(OC(F)(F)F)cc32)n1 (stereo not drawn) | 3.13 to 6.25 µg/mL (≈ 6.77 to 13.5 µM) | 3.13 to 6.25 µg/mL (≈ 6.77 to 13.5 µM) | – | – | – | – | – | –
CN(C)[C@@H]1C(O)=C(C(N)=O)C(=O)[C@@]2(O)C(O)=C3C(=O)c4c(O)cccc4[C@@](C)(O)[C@H]3C[C@@H]12 [TETRACYCLINE] | – | – | > 12.5 µg/mL | < 1.56 µg/mL | < 1.56 µg/mL | < 1.56 µg/mL | < 1.56 µg/mL | –
CC(C)CNc1nccc(NCCCNC2CCCc3c2[nH]c2ccc(C(=O)O)cc32)n1 (stereo not drawn) | > 50 µg/mL | > 50 µg/mL | – | – | – | – | – | –
Cc1ccc2[nH]c3c(c2c1)CCCC3NCCCc1ccccc1 (stereo not drawn) | 4 to 8 µg/mL (≈ 12.6 to 25.1 µM) | – | – | – | – | – | – | –
NC[C@H]1O[C@H](O[C@H]2[C@H](O)[C@@H](O[C@H]3O[C@H](CO)[C@@H](O)[C@H](N)[C@H]3O)[C@H](N)C[C@@H]2N)[C@H](O)[C@@H](O)[C@@H]1O [KANAMYCIN] | – | > 50 µg/mL | 50 to 75 µg/mL (≈ 103 to 155 µM) | 50 to 75 µg/mL (≈ 103 to 155 µM) | – | 50 to 75 µg/mL (≈ 103 to 155 µM) | – | –

— ChEMBL document CHEMBL4382226, “Design, synthesis and evaluation of hybrid of tetrahydrocarbazole with 2,4-diaminopyrimidine scaffold as antibacterial agents” (Eur J Med Chem, 2019)
